In ChEMBL document CHEMBL1133301, “Beta-keto-ester chemistry and ketolides. Synthesis and antibacterial activity of 2-halogeno, 2-methyl and 2,3 enol-ether ketolides” (2000):
In brackets after ≈: the same amount, converted by molar mass.

Tests used:
Type in all cases: functional
Streptococcus pneumoniae [1] = assay: The compound has been evaluated for the antibacterial activity against Streptococcus pneumoniae Ery Ri 030SJ 5i strains
Haemophilus influenzae = assay: The compound has been evaluated for the antibacterial activity against Haemophilus influenzae 351HT3 (beta-lactamase +)
Streptococcus pneumoniae [2] = assay: The compound has been evaluated for the antibacterial activity against Streptococcus pneumoniae EryRc 030SJ1 strains
Streptococcus pyogenes = assay: The compound has been evaluated for the antibacterial activity against Streptococcus pyogenes EryS 02A1UC1.
Staphylococcus aureus [3] = assay: The compound has been evaluated for the antibacterial activity against Staphylococcus aureus EryRi 011GO25i strains
Streptococcus pneumoniae [4] = assay: The compound has been evaluated for the antibacterial activity against Streptococcus pneumoniae EryRc 030PW23c strains
Staphylococcus aureus [5] = assay: The compound has been evaluated for the antibacterial activity against Staphylococcus aureus EryS 011UC4 strains
Staphylococcus aureus [6] = assay: The compound has been evaluated for the antibacterial activity against Staphylococcus aureus EryRc 011CB20 strains
Streptococcus pneumoniae [7] = assay: The compound has been evaluated for the antibacterial activity against Streptococcus pneumoniae EryS 032UC1 strains
Mus musculus [8] = assay: The compound has been evaluated for the in vivo efficacy that protect 50% of mice from lethal infection by Staphylococcus aureus EryS 011HT17 strains after oral administration
Mus musculus [9] = assay: The compound has been evaluated for the in vivo efficacy that protect 50%of mice from lethal infection by Haemophilus influenzae AmpR 351RD7 after oral administration
Mus musculus [10] = assay: The compound has been evaluated for the in vivo efficacy that protect 50% of mice from lethal infection by Streptococcus Pneumoniae EryRc 030MV2 strains after oral administration
Mus musculus [11] = assay: The compound has been evaluated for the in vivo efficacy that protect 50% of mice from lethal infection by Streptococcus Pneumoniae EryRi 030SJ5i strains after oral administration
Mus musculus [12] = assay: The compound has been evaluated for the in vivo efficacy that protect 50% of mice from lethal infection by Streptococcus Pneumonia EryS 032UC1 strain after oral administration
Mus musculus [13] = assay: The compound has been evaluated for the in vivo efficacy that protect 50% of mice from lethal infection of Streptococcus Pneumonia EryS 032UC1 strain after oral administration
Mus musculus [14] = assay: The compound has been evaluated for the in vivo efficacy that protect 50% of mice from lethal infection of Streptococcus Pneumoniae EryRc 030MV2 strains after oral administration
Mus musculus [15] = assay: The compound has been evaluated for the in vivo efficacy that protect 50% of mice from lethal infection of Staphylococcus aureus EryS 011HT17 strains after oral administration
Mus musculus [16] = assay: The compound has been evaluated for the in vivo efficacy that protect 50% of mice from lethal infection of Streptococcus Pneumoniae EryRi 030SJ5i strains after oral administration
Mus musculus [17] = assay: The compound has been evaluated for the in vivo efficacy that protect 50%of mice from lethal infection of Haemophilus influenzae AmpR 351RD7 after oral administration

SMILES	MIC (Streptococcus pneumoniae [1])	MIC (Haemophilus influenzae)	MIC (Streptococcus pneumoniae [2])	MIC (Streptococcus pyogenes)	MIC (Staphylococcus aureus [3])	MIC (Streptococcus pneumoniae [4])	MIC (Staphylococcus aureus [5])	MIC (Staphylococcus aureus [6])	MIC (Streptococcus pneumoniae [7])	ED50 (Mus musculus [8])	ED50 (Mus musculus [9])	ED50 (Mus musculus [10])	ED50 (Mus musculus [11])	ED50 (Mus musculus [12])	ED50 (Mus musculus [13])	ED50 (Mus musculus [14])	ED50 (Mus musculus [15])	ED50 (Mus musculus [16])	ED50 (Mus musculus [17])
CC[C@H]1OC(=O)[C@@](C)(F)C(=O)[C@H](C)[C@@H](O[C@@H]2O[C@H](C)C[C@H](N(C)C)[C@H]2O)[C@](C)(OC)C[C@@H](C)C(=O)[C@H](C)[C@H]2N(CCCCn3cnc(-c4cccnc4)c3)C(=O)O[C@]12C	< 0.02 µg/mL	1.2 µg/mL (≈ 1.45 µM)	< 0.02 µg/mL	< 0.02 µg/mL	0.08 µg/mL (≈ 0.0964 µM)	< 0.02 µg/mL	0.02 µg/mL (≈ 0.0241 µM)	> 40 µg/mL	< 0.02 µg/mL	9 mg/kg	56 mg/kg	2 mg/kg	4.3 mg/kg	1.5 mg/kg					
CC[C@H]1OC(=O)[C@H](C)[C@@H](O[C@H]2C[C@@](C)(OC)[C@@H](O)[C@H](C)O2)[C@H](C)[C@@H](O[C@@H]2O[C@H](C)C[C@H](N(C)C)[C@H]2O)[C@](C)(O)C[C@@H](C)CN(C)[C@H](C)[C@@H](O)[C@]1(C)O [AZITHROMYCIN]	> 40 µg/mL	1.2 µg/mL (≈ 1.6 µM)	> 40 µg/mL	0.6 µg/mL (≈ 0.801 µM)	> 40 µg/mL	> 40 µg/mL	0.3 µg/mL (≈ 0.401 µM)	> 40 µg/mL	0.15 µg/mL (≈ 0.2 µM)						4.5 mg/kg	> 50 mg/kg	72 mg/kg	> 50 mg/kg	94 mg/kg
CC[C@H]1OC(=O)[C@H](C)[C@@H](O[C@H]2C[C@@](C)(OC)[C@@H](O)[C@H](C)O2)[C@H](C)[C@@H](O[C@@H]2O[C@H](C)C[C@H](N(C)C)[C@H]2O)[C@](C)(OC)C[C@@H](C)C(=O)[C@H](C)[C@@H](O)[C@]1(C)O [CLARITHROMYCIN]	> 40 µg/mL	5 µg/mL (≈ 6.68 µM)	> 40 µg/mL	0.008 µg/mL (≈ 0.0107 µM)	> 40 µg/mL	> 40 µg/mL	0.3 µg/mL (≈ 0.401 µM)	> 40 µg/mL	0.04 µg/mL (≈ 0.0535 µM)	12 mg/kg	> 150 mg/kg	> 50 mg/kg	> 50 mg/kg	2 mg/kg					
CC[C@H]1OC(=O)[C@H](C)C(=O)[C@H](C)[C@@H](O[C@@H]2O[C@H](C)C[C@H](N(C)C)[C@H]2O)[C@](C)(OC)C[C@@H](C)C(=O)[C@H](C)[C@H]2N(CCCCn3cnc(-c4cccnc4)c3)C(=O)O[C@]12C [TELITHROMYCIN]	< 0.02 µg/mL	1.2 µg/mL (≈ 1.48 µM)	< 0.02 µg/mL	< 0.02 µg/mL	0.08 µg/mL (≈ 0.0985 µM)	0.04 µg/mL (≈ 0.0493 µM)	0.04 µg/mL (≈ 0.0493 µM)	> 40 µg/mL	< 0.02 µg/mL										

Further lines, with some results ahead:

MIC (Streptococcus pneumoniae [1])	MIC (Haemophilus influenzae)	MIC (Streptococcus pneumoniae [2])	MIC (Streptococcus pyogenes)	MIC (Staphylococcus aureus [3])	MIC (Streptococcus pneumoniae [4])	MIC (Staphylococcus aureus [5])	MIC (Staphylococcus aureus [6])	MIC (Streptococcus pneumoniae [7])	SMILES	ED50 (Mus musculus [8])	ED50 (Mus musculus [9])	ED50 (Mus musculus [10])	ED50 (Mus musculus [11])	ED50 (Mus musculus [12])	ED50 (Mus musculus [13])	ED50 (Mus musculus [14])	ED50 (Mus musculus [15])	ED50 (Mus musculus [16])	ED50 (Mus musculus [17])
5 µg/mL (≈ 5.48 µM)	20 µg/mL (≈ 21.9 µM)	10 µg/mL (≈ 11 µM)	0.3 µg/mL (≈ 0.329 µM)	20 µg/mL (≈ 21.9 µM)	2.5 µg/mL (≈ 2.74 µM)	2.5 µg/mL (≈ 2.74 µM)	> 40 µg/mL	0.15 µg/mL (≈ 0.164 µM)	CC[C@H]1OC(=O)/C(C)=C(/OCOCCN(C)C)[C@H](C)[C@@H](O[C@@H]2O[C@H](C)C[C@H](N(C)C)[C@H]2O)[C@](C)(OC)C[C@@H](C)C(=O)[C@H](C)[C@H]2N(CCCCn3cnc(-c4cccnc4)c3)C(=O)O[C@]12C										
0.6 µg/mL (≈ 0.726 µM)	2.5 µg/mL (≈ 3.03 µM)	2.5 µg/mL (≈ 3.03 µM)	0.02 µg/mL (≈ 0.0242 µM)	1.2 µg/mL (≈ 1.45 µM)	2.5 µg/mL (≈ 3.03 µM)	0.6 µg/mL (≈ 0.726 µM)	> 40 µg/mL	0.02 µg/mL (≈ 0.0242 µM)	CC[C@H]1OC(=O)C(C)(C)C(=O)[C@H](C)[C@@H](O[C@@H]2O[C@H](C)C[C@H](N(C)C)[C@H]2O)[C@](C)(OC)C[C@@H](C)C(=O)[C@H](C)[C@H]2N(CCCCn3cnc(-c4cccnc4)c3)C(=O)O[C@]12C										
0.6 µg/mL (≈ 0.709 µM)	2.5 µg/mL (≈ 2.95 µM)	5 µg/mL (≈ 5.91 µM)	0.04 µg/mL (≈ 0.0473 µM)	> 40 µg/mL	1.2 µg/mL (≈ 1.42 µM)	0.6 µg/mL (≈ 0.709 µM)	> 40 µg/mL	0.04 µg/mL (≈ 0.0473 µM)	CC[C@H]1OC(=O)C(C)(Cl)C(=O)[C@H](C)[C@@H](O[C@@H]2O[C@H](C)C[C@H](N(C)C)[C@H]2O)[C@](C)(OC)C[C@@H](C)C(=O)[C@H](C)[C@H]2N(CCCCn3cnc(-c4cccnc4)c3)C(=O)O[C@]12C (stereo partly specified)										
20 µg/mL (≈ 20.8 µM)	> 40 µg/mL	20 µg/mL (≈ 20.8 µM)	0.15 µg/mL (≈ 0.156 µM)	> 40 µg/mL	20 µg/mL (≈ 20.8 µM)	5 µg/mL (≈ 5.21 µM)	> 40 µg/mL	0.8 µg/mL (≈ 0.833 µM)	CC[C@H]1OC(=O)/C(C)=C(/OCOCCCc2ccccc2)[C@H](C)[C@@H](O[C@@H]2O[C@H](C)C[C@H](N(C)C)[C@H]2O)[C@](C)(OC)C[C@@H](C)C(=O)[C@H](C)[C@H]2N(CCCCn3cnc(-c4cccnc4)c3)C(=O)O[C@]12C										
2.5 µg/mL (≈ 3.14 µM)	2.5 µg/mL (≈ 3.14 µM)	10 µg/mL (≈ 12.6 µM)	0.02 µg/mL (≈ 0.0251 µM)	0.3 µg/mL (≈ 0.377 µM)	0.3 µg/mL (≈ 0.377 µM)	0.08 µg/mL (≈ 0.101 µM)	> 40 µg/mL	0.02 µg/mL (≈ 0.0251 µM)	CC[C@H]1OC(=O)/C(C)=C\[C@H](C)[C@@H](O[C@@H]2O[C@H](C)C[C@H](N(C)C)[C@H]2O)[C@](C)(OC)C[C@@H](C)C(=O)[C@H](C)[C@H]2N(CCCCn3cnc(-c4cccnc4)c3)C(=O)O[C@]12C										
